The text below walks through data of patent US20210353590A1 (priority 2020, published 2021).

One series in a line: Pharmacokinetic analysis. To be noted: rat. Here is the method:
The photoperiod of 12 h was maintained. […] 120 male rats were randomly divided into 30 groups of 4 animals each corresponding to the time points of blood collection. […] Rats were fasted (Approximately 4 h) before administration of drug. On the other hand, AND at the dose of 10-mg/kg was administered intravenously (i.v.) for comparative studies. Plasma concentration data was analyzed and computed for pharmacokinetic parameters. The following pharmacokinetic parameters were assessed: ke (h), t½ (h), Cmax (μg/ml), AUClast (h.μg/ml), AUCinf (h.μg/ml), MRT (h), CLTotal (L/h), Vd (L) and F%.

The nature of series [1]: Solubility analysis by saturated solution method. To be noted: 37±1° C., 24 hrs, 100 rpm.
Description: After that, suspension was filtered and 0.1 ml of the filtrate was diluted with water up to 1 ml. The contents in the aliquot were measured by HPLC method (Sajeeb BK, 2015). All measurements were carried out in triplicate (n=3).
The conditions of series [2]: after 2 h, simulated intestinal fluid pH 7.2, 37±2° C., 50 rpm, 100 mg AND or equivalent.
Description: The temperature of SIF was maintained at 37±2° C. At specified time intervals, 2 ml of SIF was taken and replaced with identical volume. Subsequently, all the samples were filtered through 0.22 μm membrane filter and assayed for drug content at 225 nm.

≈ marks a conversion by molar mass, not a printed value.

For `C=C1CC[C@@H]2[C@](C)(CO)[C@H](O)CC[C@@]2(C)[C@@H]1C/C=C1/C(=O)OC[C@H]1O` [Andrographolide], in “Pharmacokinetic analysis” (Oral, 100 mg/kg), the AUC inf is 1845.58 ± 305.77 µg·h/mL, the AUC last is 1223.6 ± 143.09 µg·h/mL, the CLTotal is 0.055 ± 0.008 L/h and the Cmax stood at 239.6 ± 75.37 µg/mL. Further, in “Pharmacokinetic analysis” (Oral, 100 mg/kg), the Vd was found to be 0.468 ± 0.060 L, the t1/2 amounted to 5.92 ± 0.21 h and the tmax is on record as 2 h. Besides, the “F (bioavailability)” value in the series “Pharmacokinetic analysis” (Oral, 100 mg/kg, versus AND i.v. 10 mg/kg) is listed as 15.87±3.84%. In “Pharmacokinetic analysis” (i.v., 10 mg/kg), this molecule yielded an AUC inf of 891.08 ± 179.75 µg·h/mL, an AUC last of 801.14 ± 181.07 µg·h/mL, a CLTotal of 0.011 ± 0.002 L/h and an MRT of 1.11 ± 0.04 h. Also, in the series “Pharmacokinetic analysis” (i.v., 10 mg/kg), the Vd is recorded as 0.013 ± 0.003 L and the t1/2 worked out at 0.859 ± 0.031 h. Also, the MRT in “Pharmacokinetic analysis” (in vivo, po, 100 mg/kg) was 1.49 ± 0.0.085 h. In series [1], the “solubility in aqueous phase” value came to 6.39 ± 0.47 µg/mL (≈ 18.2 µM). Moreover, in series [2], the release is 27.89±1.32%.
